From publication PMC9141032 (International Journal of Molecular Sciences, 2022)

Key:
[1] = test system: imidazoline I2 receptors (I2-IR); parameters: method as in ref 32, 33 = [32]; 32. Escolano C. Pallás M. Griñán-Ferré C. Abás S. Callado L.-F. García-Sevilla J.A. Synthetic I 2 Imidazoline Receptor Ligands for Prevention or Treatment of Human Brain Disorders Patent WO 2019/12185 || [33]; PMID 32150414; doi:10.1021/acs.jmedchem.9b02080; 33. Abás S. Rodríguez-Arévalo S. Bagán A. Griñán-Ferré C. Vasilopoulou F. Brocos-Mosquera I. Muguruza C. Pérez B. Molins E. Luque F.J. Bicyclic α-Iminophosphonates as High Affinity Imidazoline I 2 Rec; settings: cited from earlier work
[2] = Metabolic profiling in human liver microsomes (LC-HRMS); assay type: in vitro ADME
Method: (§1) The objective of the study is to evaluate the formation of the main metabolites from B06 in HLM incubations and MLM incubations preceding the in vivo metabolic study, using these same incubations to identify the possible metabolites. […] Reactions without NADPH were also incubated to rule out non-NADPH metabolism or chemical instability in the incubation buffer. Verapamil was included as positive control to monitor incubation course. All reactions were terminated using 60 µL of ice-cold acetonitrile at 0, 5, 15, 30, 45, and 60 min. The plates were centrifugated at 3500 rpm for 15 min. All experiments were conducted in triplicates. Samples were analysed by LC-HMRS in positive ionization mode. Compound incubations without NADPH and compound reference standard were used as interference control for each incubation sample.
Metabolic profiling of B06 in human liver microsomes
The equipment used for the analysis was an Agilent 1290 Infinity UHPC, ABSciex 5600 QTOF Mass Spectrometer, Metabolite Pilot V 1.5 Sofware.
Method: ionization mode, electrospray positive; acquisition mode, TOF MS with IDA MS/MS; […]
All the tentative identified metabolites have been evaluated using of a score (40 value). This score depend on mass defect, isotope pattern, mass a ccur a cy and MS/MS. In all the cases the score was equal or greater than 68%.
Table S9. Metabolite time course in HLM incubations for B06
Peak Description Time Formula m/z Mass R.T. Peak % %
ID incubation error (min) Area Area Score […]

[3] = Metabolic profiling in mouse liver microsomes (LC-HRMS); assay type: in vitro ADME
Method: as §1
Metabolic profiling of B06 in mouse liver microsomes
The equipment used for the analysis wa s an Agilent 1290 Infinity UHPC, ABSciex 5600 QTOF Mass Spectrometer, Metabolite Pilot V 1.5 Sofware.
Method: ionization mode, electrospray positive; acquisition mode, TOF MS with IDA MS/MS; colum, Atlantis T3 C18, 2.1 x 15 mm, 3 μ m; mobile phase, water:acetonitrile: 0.1% formic acid; flow […]
All the tentative identified metabolites have been evaluated using of a score (40 value). This score depend on mass defect, isotope pattern, mass accuracy and MS/MS. In all the cases the score was equal or greater than 68%.
All analytical determinations of B06 were performed in according to the recommendations of the […]
Table S10. Metabolite time course in MLM incubations for B06
Peak Description Time Formula m/z Mass R.T. Peak Area % %
ID incubation error (min) Area Score
1 Safety testing of drug metabolites. Guidance for industry. U.S. Department of Health and Human Services Food and Drug Administration Center for Drug Evaluation and Research (CDER) March 2020 Pharmacology/Toxicology. https://www.fda.gov/regulatory‐information/search‐fda‐guidance‐ documents/safety‐testing‐drug‐metabolites

[4] = test system: SAMP8 murine model; settings: cited from earlier work

c1ccc2c(c1)OCC(C1=NCCN1)O2 (stereo not shown) [idazoxan]
ratio of I2/α2 ([1]; I2-IR ([3H]2-BFI) versus α2-AR ([3H]RX821002), human frontal cortex): non I2/α2 selectivity
pKi ([1]; membranes of post mortem human frontal cortex, against [3H]2-BFI): 7.41 ± 0.63

CCOP(=O)(O)[C@]1(c2ccccc2)N=C[C@H]2C(=O)N(c3ccc(F)c(Cl)c3)C(=O)[C@H]21 [Compound 1, ethyl hydrogen [(1R,3aS,6aS)-5-(3-chloro-4-fluorophenyl)-4,6-dioxo-1-phenyl-1,3a,4,5,6,6a-hexahydropyrrolo[3,4-c]pyrrol-1-yl]phosphonate]
% Area of metabolite in chromatogram ([2]; HLM incubation of B06, 15 min): 8.4%
% Area of metabolite in chromatogram ([2]; HLM incubation of B06, 30 min): 17.8%
% Area of metabolite in chromatogram ([2]; HLM incubation of B06, 45 min): 26.2%
% Area of metabolite in chromatogram ([2]; HLM incubation of B06, 60 min): 36%
% Area of metabolite in chromatogram ([2]; HLM incubation of B06, 60 min, listed as M1): 36.0%
% Area of metabolite in chromatogram ([3]; MLM incubation of B06, 5 min): 10.7%
% Area of metabolite in chromatogram ([3]; MLM incubation of B06, 15 min): 30.9%
% Area of metabolite in chromatogram ([3]; MLM incubation of B06, 30 min): 60.9%
% Area of metabolite in chromatogram ([3]; MLM incubation of B06, 45 min): 81.6%
% Area of metabolite in chromatogram ([3]; MLM incubation of B06, 60 min): 88.9%

CCOP(=O)(OCC)C1(c2ccccc2)N=CN(Cc2ccc(F)c(Cl)c2)C1(C)C (stereo not shown) [MCR5]
effect on cognition and hallmarks [4]: cognitive improvement and amelioration of hallmarks
